What was measured:
K562 = assay: cells; conditions: Homo sapiens, K562, 48 h
Description: Growth inhibition of human K562 cells after 48 hrs by XTT assay

[1] = target: T1, Receptor-type tyrosine-protein kinase FLT3 (Homo sapiens, UniProt P36888)
T1 sequence (P36888 whole entry): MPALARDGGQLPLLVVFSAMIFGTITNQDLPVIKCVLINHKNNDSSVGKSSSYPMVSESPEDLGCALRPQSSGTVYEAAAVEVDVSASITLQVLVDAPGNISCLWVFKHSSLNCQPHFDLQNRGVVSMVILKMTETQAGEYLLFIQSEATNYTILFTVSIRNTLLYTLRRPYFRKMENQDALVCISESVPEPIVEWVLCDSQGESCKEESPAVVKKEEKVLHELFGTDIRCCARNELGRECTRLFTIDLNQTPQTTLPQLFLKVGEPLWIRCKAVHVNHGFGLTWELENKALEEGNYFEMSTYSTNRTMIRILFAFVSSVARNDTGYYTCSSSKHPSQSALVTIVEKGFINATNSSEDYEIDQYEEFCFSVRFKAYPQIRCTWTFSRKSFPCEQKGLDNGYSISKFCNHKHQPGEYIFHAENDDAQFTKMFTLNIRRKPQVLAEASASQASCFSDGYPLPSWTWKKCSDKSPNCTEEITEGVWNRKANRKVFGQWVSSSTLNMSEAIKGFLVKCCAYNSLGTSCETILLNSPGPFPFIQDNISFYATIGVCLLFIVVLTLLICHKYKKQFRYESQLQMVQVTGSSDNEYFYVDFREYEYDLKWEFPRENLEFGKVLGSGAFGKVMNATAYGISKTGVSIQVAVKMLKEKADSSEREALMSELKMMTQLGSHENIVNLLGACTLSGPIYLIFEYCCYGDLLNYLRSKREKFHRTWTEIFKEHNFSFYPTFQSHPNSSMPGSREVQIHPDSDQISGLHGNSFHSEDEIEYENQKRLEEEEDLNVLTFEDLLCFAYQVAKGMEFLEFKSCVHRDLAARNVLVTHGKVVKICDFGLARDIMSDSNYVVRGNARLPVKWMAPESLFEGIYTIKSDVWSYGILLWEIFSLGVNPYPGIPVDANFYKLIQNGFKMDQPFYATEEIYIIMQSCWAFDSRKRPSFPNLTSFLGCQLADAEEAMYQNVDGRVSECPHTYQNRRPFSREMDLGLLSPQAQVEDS
Description: Inhibition of human FLT3 using 10 uM ATP

[2] = Retention time of the compound by HPLC method; type: physicochemical
cells [3] = conditions: Homo sapiens, HL-60, 48 h
Description: Growth inhibition of human HL60 cells after 48 hrs by XTT assay

cells [4] = conditions: Homo sapiens, THP-1, 48 h
Description: Growth inhibition of human THP1 cells after 48 hrs by XTT assay

cells [5] = conditions: Homo sapiens, MV4-11, 48 h
Description: Growth inhibition of human MV411 cells after 48 hrs by XTT assay

In the case of `COc1ccc(-c2nc(NN3C(=O)C=C(C)C3=O)c3c(-c4ccccc4)csc3n2)cc1`, the GI50 (K562) is reported as 0.703 µM, the IC50 [1] is reported as “Not Active” and the Retention_time [2] is reported as 9.76 min. It also gave a GI50 (cells [3]) of 1.31 µM, a GI50 (cells [4]) of 2.21 µM and a GI50 (cells [5]) of 0.407 µM.

For `CC1=CC(=O)N(Nc2nc(Cc3cccs3)nc3scc(-c4cccs4)c23)C1=O`, the GI50 (K562) was over 10 µM, the IC50 [1] was “Not Active” and the GI50 (cells [3]) was 0.725 µM. The GI50 (cells [4]) was 6.26 µM and the GI50 (cells [5]) was 2.01 µM.

For `CC1=CC(=O)N(Nc2nc(-c3cccs3)nc3sc(-c4cccc(O)c4)c(C)c23)C1=O`, the GI50 (K562) was 0.003 µM, the GI50 (cells [3]) was 0.383 µM and the GI50 (cells [4]) was 0.107 µM. The GI50 (cells [5]) was 0.123 µM.

With `COC(=O)Cc1sc2nc(-c3cccs3)nc(NN3C(=O)C=C(C)C3=O)c2c1C` the GI50 (K562) was 0.483 µM, the GI50 (cells [3]) was 0.656 µM and the GI50 (cells [4]) was 2.9 µM. For the same compound, the GI50 (cells [5]) was 0.091 µM.

In the case of `COCc1sc2nc(-c3cccs3)nc(NN3C(=O)C=C(C)C3=O)c2c1C`, the GI50 (K562) is reported as 1.26 µM, the Retention_time [2] is reported as 10.19 min and the GI50 (cells [3]) is reported as 0.266 µM. It also gave a GI50 (cells [4]) of 1.78 µM and a GI50 (cells [5]) of 0.115 µM.

Compound `CC1=CC(=O)N(Nc2nc(-c3ccc(C)s3)nc3scc(-c4cccs4)c23)C1=O` has a GI50 (K562) of 1.92 µM, a Retention_time [2] of 6.17 min and a GI50 (cells [3]) of 0.403 µM. For the same compound, the GI50 (cells [4]) was 2.81 µM and the GI50 (cells [5]) was 0.775 µM.

With `CC1=CC(=O)N(Nc2nc(Cc3ccccc3)nc3scc(-c4cccs4)c23)C1=O` the GI50 (K562) was 3.52 µM, the IC50 [1] was “Not Active” and the Retention_time [2] was 7.09 min. The GI50 (cells [3]) was 1.52 µM, the GI50 (cells [4]) was 6.66 µM and the GI50 (cells [5]) was 3.83 µM.

`CC1=CC(=O)N(Nc2nc(-c3cccs3)nc3sc(Cc4ccc(O)cc4)c(C)c23)C1=O` showed a GI50 (K562) of 0.88 µM, a GI50 (cells [3]) of 0.213 µM and a GI50 (cells [4]) of 0.948 µM. It also gave a GI50 (cells [5]) of 0.103 µM.

In the case of `COc1ccc(-c2sc3nc(-c4cccs4)nc(NN4C(=O)C=C(C)C4=O)c3c2C)cc1`, the GI50 (K562) is reported as 0.154 µM, the Retention_time [2] is reported as 10.06 min and the GI50 (cells [3]) is reported as 0.624 µM. It also gave a GI50 (cells [4]) of 0.902 µM and a GI50 (cells [5]) of 0.135 µM.

For `NNc1nc(-c2cccs2)nc2scc(-c3cccs3)c12`, the GI50 (K562) was over 10 µM, the GI50 (cells [3]) was over 10 µM and the GI50 (cells [4]) was over 10 µM. It also gave a GI50 (cells [5]) of over 10 µM.

`COc1sc2nc(-c3cccs3)nc(NN3C(=O)C=C(C)C3=O)c2c1C` gave a GI50 (K562) of 1.46 µM, a Retention_time [2] of 5.61 min and a GI50 (cells [3]) of 0.24 µM. It also gave a GI50 (cells [4]) of 0.906 µM and a GI50 (cells [5]) of 0.1 µM.

`Cl.c1csc(-c2nc(N3CCNCC3)c3c(-c4cccs4)csc3n2)c1` showed a GI50 (K562) of over 10 µM, a Retention_time [2] of 4.39 min and a GI50 (cells [3]) of over 10 µM. It also gave a GI50 (cells [4]) of over 10 µM and a GI50 (cells [5]) of over 10 µM.

`CC1=CC(=O)N(Nc2nc(-c3cccs3)nc3sc(-c4ccc(O)cc4)c(C)c23)C1=O` gave a GI50 (K562) of 0.145 µM, a Retention_time [2] of 4.93 min and a GI50 (cells [3]) of 0.221 µM. For the same compound, the GI50 (cells [4]) was 0.6 µM and the GI50 (cells [5]) was 0.131 µM.

Work on `CC1=CC(=O)N(Nc2nc(-c3cccs3)nc3sc(CO)c(C)c23)C1=O` yielded a GI50 (K562) of 3.84 µM, a Retention_time [2] of 10.19 min and a GI50 (cells [3]) of 0.712 µM. It also gave a GI50 (cells [4]) of 2.6 µM and a GI50 (cells [5]) of 0.092 µM.

Compound `CC1=CC(=O)N(Nc2nc(-c3cccs3)nc3scc(-c4ccccc4)c23)C1=O` has a GI50 (K562) of 0.074 µM, a Retention_time [2] of 8.39 min and a GI50 (cells [3]) of 0.758 µM. For the same compound, the GI50 (cells [4]) was 0.155 µM and the GI50 (cells [5]) was 0.233 µM.

For `CC1=CC(=O)N(Nc2nc(-c3cccs3)nc3scc(-c4cccs4)c23)C1=O`, the GI50 (K562) was 5.55 µM, the IC50 ([1]; read-out: IC50) was 0.069 µM and the Retention_time [2] was 8.11 min. For the same compound, the GI50 (cells [3]) was 0.746 µM, the GI50 (cells [4]) was 2.67 µM and the GI50 (cells [5]) was 0.32 µM.

Compound `CC1=CC(=O)N(Nc2nc(-c3ccc(N)cc3)nc3scc(-c4ccccc4)c23)C1=O` has a GI50 (K562) of 8.16 µM, a Retention_time [2] of 5.16 min and a GI50 (cells [3]) of 3.71 µM. The GI50 (cells [4]) was 4.11 µM and the GI50 (cells [5]) was 2.1 µM.

For `COC(=O)c1sc2nc(-c3cccs3)nc(NN3C(=O)C=C(C)C3=O)c2c1C`, the GI50 (K562) was 0.03 µM, the Retention_time [2] was 6.04 min and the GI50 (cells [3]) was 0.136 µM. It also gave a GI50 (cells [4]) of 0.172 µM and a GI50 (cells [5]) of 0.086 µM.

For `CC1=CC(=O)N(Nc2nc(-c3ccc(N(C)C)cc3)nc3scc(-c4ccccc4)c23)C1=O`, the GI50 (K562) was 1.74 µM, the IC50 [1] was “Not Active” and the Retention_time [2] was 10.86 min. For the same compound, the GI50 (cells [3]) was 2.19 µM, the GI50 (cells [4]) was 1.63 µM and the GI50 (cells [5]) was 0.755 µM.

Work on `COc1cc2c(N3CCN(C(=O)Nc4ccc(OC(C)C)cc4)CC3)ncnc2cc1OCCCN1CCCCC1` [TANDUTINIB] yielded a GI50 (K562) of over 10 µM, a GI50 (cells [3]) of over 10 µM and a GI50 (cells [4]) of over 10 µM. For the same compound, the GI50 (cells [5]) was 8.76 µM.

`CC1=CC(=O)N(Nc2nc(-c3cccs3)nc3sc(C(N)=O)c(C)c23)C1=O` gave a GI50 (K562) of 2.78 µM, a Retention_time [2] of 5.72 min and a GI50 (cells [3]) of 7.8 µM. For the same compound, the GI50 (cells [4]) was 2.69 µM and the GI50 (cells [5]) was 0.193 µM.

In the case of `CC1=CC(=O)N(Nc2nc(-c3cccs3)nc3sc(-c4ccc([N+](=O)[O-])cc4)c(C)c23)C1=O`, the GI50 (K562) is reported as 1.88 µM, the Retention_time [2] is reported as 9.44 min and the GI50 (cells [3]) is reported as 0.418 µM. It also gave a GI50 (cells [4]) of 0.846 µM and a GI50 (cells [5]) of 0.112 µM.

For `CC1=CC(=O)N(Nc2nc(-c3ccccc3)nc3scc(-c4cccs4)c23)C1=O`, the GI50 (K562) was 6.3 µM, the IC50 ([1]; read-out: IC50) was 1.6 µM and the Retention_time [2] was 6.15 min. For the same compound, the GI50 (cells [3]) was 0.862 µM, the GI50 (cells [4]) was 3.73 µM and the GI50 (cells [5]) was 0.836 µM.
